The text below walks through data of patent publication US8501715B2, “Oxidized lipids and uses thereof in the treatment of inflammatory diseases and disorders” (Vascular Biogenics Ltd., priority 2003, dated 2013).

Test [1] has as its system T-cells from inguinal lymph node. Briefly: Proliferation assay (stimulation index) of lymph node cells exposed to Human ox-LDL. It counts as in vivo. As to conditions: oral 1 mg/mouse every other day for 5 days. As for the experimental part: 6 week old male Apo-E KO mice were fed either 1 mg/mouse L-ALLE (L-ALLE) (n=2) or POVPC (POVPC) (n=3) in 0.2 ml PBS; or PBS alone (CONTROL) (n=3) every other day for 5 days. One week following the last feeding the mice were immunized with a single subcutaneous injection of 50 μg Human oxidized LDL antigen. 7 days later T-cells from inguinal lymph node were prepared as described in Materials and Methods section that follows, and exposed to the sensitizing Human ox-LDL antigen for in-vitro assessment of proliferation. Proliferation, indicating immune reactivity, is expressed as the ratio between incorporation of labeled thymidine into the T-cell's DNA in the presence and absence of human ox-LDL antigen (stimulation index, S.I.).
II. […]
Proliferation was assayed eight days after immunization with the oxidized LDL as follows: Spleens or lymph nodes were prepared by meshing the tissues on 100 mesh screens. […] Incomplete medium was added (10 ml), cells were centrifuge for 7 minutes at 1,700 rpm, resuspended in RPMI medium and counted in a haemocytometer at 1:20 dilution (10 μl cells+190 μl Trypan Blue). Proliferation was measured by the incorporation of [^3H]-Thymidine into DNA in triplicate samples of 100 μl of the packed cells (2.5×10^6 cells/ml) in a 96 well microtiter plate. […]

The nature of test [2]: FPLC analysis of triglyceride and cholesterol content of VLDL. It counts as in vivo. As to conditions: oral 1 mg/mouse, 3 sets over 12 weeks; measured 9 weeks from t=0; FPLC of pooled blood. As for the experimental part: 24.5 weeks old Apo-E KO mice were fed 1 mg/mouse L-ALLE (triangle) (n=11), D-ALLE (inverted triangle) (n=9) or POVPC (square) (n=10) every other day for 5 days, at 4 weeks intervals over a 12 weeks period. Control mice were fed an identical volume (0.2 ml) and regimen of PBS (circle) (n=10). Triglyceride content (Tg, mg/ml) was measured 9 weeks from t=0, by enzymatic colorimetric method in the VLDL fractions following separation of pooled blood samples on FPLC, as described in the materials and methods section that follows.
24.5 weeks old Apo-E KO mice were fed 1 mg/mouse L-ALLE (triangle) (n=11), D-ALLE (inverted triangle) (n=9) or POVPC (square) (n=10) every other day for 5 days, at 4 weeks intervals over a 12 weeks period. Control mice were fed an identical volume (0.2 ml) and regimen of PBS (circle) (n=10). Cholesterol content (Cholesterol, mg/ml) was measured 9 weeks from t=0, by enzymatic colorimetric method in the VLDL fractions following separation of pooled blood samples on FPLC, as described in the materials and methods section that follows.
FPLC Analysis: Fast Protein Liquid Chromatography analysis of cholesterol and lipid content of lipoproteins was performed using Superose 6 HR 10/30 column (Amersham Pharmacia Biotech, Inc, Peapack, N.J.) on a FPLC system (Pharmacia LKB. FRAC-200, Pharmacia, Peapack, N.J.). A minimum sample volume of 300 μl (blood pooled from 3 mice was diluted 1:2 and filtered before loading) was required in the sampling vial for the automatic sampler to completely fill the 200 μl sample loop. Fractions 10-40 were collected, each fraction contained 0.5 ml. A 250 μl sample from each fraction was mixed with freshly prepared cholesterol reagent or triglyceride reagent respectively, incubated for 5 minutes at 37° C. and assayed spectrophotometrically at 500 nm.
Their effect on the triglyceride and cholesterol fractions of VLDL was also monitored by FPLC. […] male, 24.5 week old Apo-E KO mice were divided into 5 groups. In group A (n=11) mice were fed with 1 mg/mouse L-ALLE suspended in 0.2 ml PBS, administered by gavage, as described above, every other day for 5 days. In group B (n=9) mice were fed with 1 mg/mouse D-ALLE suspended in 0.2 ml PBS, administered per os, as described above, every other day for 5 days. In group C (n=10) mice were fed with 1 mg/mouse POVPC suspended in 0.2 ml PBS, administered by gavage, as described above, every other day for 5 days. […]
(§1) Mice were bled prior to feeding (Time 0), after the 2nd set of feeding and at the conclusion of the experiment (End) for determination of lipid profile, lipid fractionation and plasma collection. Atherosclerosis was assessed as described above in the aorta sinus and aorta. […] Weight was recorded every 2 weeks throughout the experiment. […]

The subject of test [3] is Apo-E KO mice. Briefly: Assessment of atherosclerosis: lesion area in the aortic sinus. It counts as in vivo, mouse. The following applies: oral 1 mg/mouse.
The subject of test [4] is Apo-E KO mice. The test is described as follows: Aorta lesion (% from total area). It is filed as in vivo. As to conditions: oral 1 mg/mouse, 5 feedings every other day every 4 weeks over 12 weeks; 24.5 week old mice; End.
Description: Assessment of Atherosclerosis: Quantification of atherosclerotic fatty streak lesions was done by calculating the lesion size in the aortic sinus as previously described (Paigen et al. Quantitative assessment of atherosclerotic lesions in mice. Atherosclerosis 1987; 68: […]) and by calculating the lesion size in the aorta. Briefly, after perfusion with saline Tris EDTA, the heart and the aorta were removed from the animals and the peripheral fat cleaned carefully. The upper section of the heart was embedded in OCT medium (10.24% w/w polyvinyl alcohol; 4.26% w/w polyethylene glycol; 85.50 w/w nonreactive ingredients) and frozen. […] Sections were evaluated for fatty streak lesions after staining with oil-red O. Lesion areas per section were scored on a grid (Rubin et al. Inhibition of early atherogenesis in transgenic mice by human apoplipoprotein A-I. Nature 1991; 353: 265-267) by an observer counting unidentified, numbered specimens. […]
Their effect on the triglyceride and cholesterol fractions of VLDL was also monitored by FPLC. […]
as §1

The test system of the next test is apoE(−/−)CD1d(−/−) mice. As to conditions: administration of alpha-galactosylceramide; Tupin et al.; cited from earlier work.
For a further test, the system named is apoE(−/−) mice. As to conditions: administration of alpha-galactosylceramide; Tupin et al.; cited from earlier work.

With `CCCCCCCCCCCCCCCCOC[C@@H](COP(=O)([O-])OCC[N+](C)(C)C)OCCCCC=O` [L-ALLE, 3-hexadecyl-2-(5′-oxo-pentanyl)-sn-glycero-1-phosphocholine], the “change of Stimulation Index versus PBS” value in test [1] (then immunization with Human oxidized LDL) is on record as −78%. The “Stimulation Index (SI)” value in test [1] (then s.c. immunization with Human oxidized LDL, lymph nodes one week later) stood at 7.3 ± 2.3. Also, in test [2], the “cholesterol content of VLDL” value was “reduction” and the “triglyceride content of VLDL” value is recorded as “reduction”. Besides, in the test with Apo-E KO mice [3] (5 feedings every other day every 4 weeks over 12 weeks, 24.5 week old mice, End (12 weeks after first feeding)), the “Sinus Lesion” value is 233056 ± 12746 μm^2. In addition, in the test with Apo-E KO mice [3] (late stage, compared with lesion scores at 24.5 weeks), the “protection from atheromatous progression” value was “nearly complete protection”. For the same compound, the “Aorta lesion (% from total area)” value in the test with Apo-E KO mice [4] is 5.4 % from total area.

`CCCCCCCCCCCCCCCCCCCCCCCCCC(=O)N[C@@H](CO[C@H]1O[C@H](CO)[C@H](O)[C@H](O)[C@H]1O)[C@H](O)[C@H](O)CCCCCCCCCCCCCC` [alpha-galactosylceramide]: the Lesion size result in the test on apoE(−/−)CD1d(−/−) mice is recorded as “did not affect lesion size”. For the same compound, the “increase in lesion size” value with apoE(−/−) mice is 50%.
